Consider 48 molecules from ChEMBL document CHEMBL1201862, “PubChem BioAssay data set” (2004).

SMILES strings stand for the structures. The source made the active and inactive calls.

Some targets named below: Cytochrome P450 3A4 (Homo sapiens, UniProt P08684); Cytochrome P450 2C9 (Homo sapiens, UniProt P11712); Cytochrome P450 2D6 (Homo sapiens, UniProt P10635).
The target of data set [1] is T1, Heat shock factor protein 1 (Mus musculus, UniProt P38532).
T1 sequence (P38532 whole entry): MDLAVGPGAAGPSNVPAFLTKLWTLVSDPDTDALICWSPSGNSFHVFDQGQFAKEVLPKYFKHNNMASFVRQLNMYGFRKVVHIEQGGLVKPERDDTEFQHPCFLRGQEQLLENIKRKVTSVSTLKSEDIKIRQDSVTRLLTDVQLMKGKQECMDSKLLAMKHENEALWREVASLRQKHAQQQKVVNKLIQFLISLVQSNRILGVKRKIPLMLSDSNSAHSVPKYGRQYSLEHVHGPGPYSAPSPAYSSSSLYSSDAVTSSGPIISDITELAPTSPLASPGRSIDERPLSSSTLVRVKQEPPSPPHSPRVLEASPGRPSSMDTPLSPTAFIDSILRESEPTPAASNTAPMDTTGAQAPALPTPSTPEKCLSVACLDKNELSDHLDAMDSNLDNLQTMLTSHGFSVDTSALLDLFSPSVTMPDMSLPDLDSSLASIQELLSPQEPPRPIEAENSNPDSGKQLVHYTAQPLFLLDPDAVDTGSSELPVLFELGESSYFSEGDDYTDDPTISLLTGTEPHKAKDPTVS
The data set can be described thus: inhibition of MG132-induced HSE-luciferase signal, confirmation, cell-based, NIH3T3, luminescence, dose retest (AID 2382).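 Also: NIH3T3 fibroblasts with HSF1-driven luciferase reporter stressed by proteasome inhibitor MG132; luminescence from HSF1-driven luciferase expression after 8 hours of MG132 stress.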 The class given is functional.

The target in a further data set is Cytochrome P450 2C19 (Homo sapiens, UniProt P33261). The data set can be described thus: Cytochrome panel assay with activity outcomes. Panel member name: p450-cyp2c19 Compounds with AC50 equal or less than 10 uM are considered active. The class given is functional.
Data set [2] can be described thus: inhibitors of firefly luciferase expression or activity, dose response, H4 neuroglioma cells, luminescence (AID 1990). The format is functional, cell-based.
Data set [3] in a line: Luminescence Cell-Based Dose Response HTS to Identify Inhibitors of 5'UTR Stem-Loop Driven Prion Protein mRNA Translation in H4 Neuroglioblastoma Cells. [Related pubchem assays: 1827 (Project Summary), 1813 (Primary HTS)]. The class given is functional.
The nature of data set [4]: inhibitors of SNCA 5'UTR-driven reporter translation, confirmation, H4 neuroglioma cells, luminescence (AID 1988). The format is functional, cell-based.
A further data set deals with T2, Cytochrome P450 1A2 (Homo sapiens, UniProt P05177).
T2 sequence (P05177 whole entry): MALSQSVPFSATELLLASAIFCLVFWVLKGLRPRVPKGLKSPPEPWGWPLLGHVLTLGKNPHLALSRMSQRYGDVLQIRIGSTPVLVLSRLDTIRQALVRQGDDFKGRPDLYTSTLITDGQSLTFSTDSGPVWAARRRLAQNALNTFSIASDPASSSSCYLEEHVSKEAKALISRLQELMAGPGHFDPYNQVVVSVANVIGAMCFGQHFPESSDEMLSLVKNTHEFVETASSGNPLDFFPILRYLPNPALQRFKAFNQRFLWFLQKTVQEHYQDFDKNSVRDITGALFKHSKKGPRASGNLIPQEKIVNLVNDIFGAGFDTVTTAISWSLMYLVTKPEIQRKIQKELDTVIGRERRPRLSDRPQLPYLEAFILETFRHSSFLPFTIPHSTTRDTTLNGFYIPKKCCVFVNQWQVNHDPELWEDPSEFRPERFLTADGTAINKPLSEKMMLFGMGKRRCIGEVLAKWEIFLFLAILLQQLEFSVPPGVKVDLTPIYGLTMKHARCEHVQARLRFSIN

Cytochrome P450 2C19, sequence (P33261 whole entry): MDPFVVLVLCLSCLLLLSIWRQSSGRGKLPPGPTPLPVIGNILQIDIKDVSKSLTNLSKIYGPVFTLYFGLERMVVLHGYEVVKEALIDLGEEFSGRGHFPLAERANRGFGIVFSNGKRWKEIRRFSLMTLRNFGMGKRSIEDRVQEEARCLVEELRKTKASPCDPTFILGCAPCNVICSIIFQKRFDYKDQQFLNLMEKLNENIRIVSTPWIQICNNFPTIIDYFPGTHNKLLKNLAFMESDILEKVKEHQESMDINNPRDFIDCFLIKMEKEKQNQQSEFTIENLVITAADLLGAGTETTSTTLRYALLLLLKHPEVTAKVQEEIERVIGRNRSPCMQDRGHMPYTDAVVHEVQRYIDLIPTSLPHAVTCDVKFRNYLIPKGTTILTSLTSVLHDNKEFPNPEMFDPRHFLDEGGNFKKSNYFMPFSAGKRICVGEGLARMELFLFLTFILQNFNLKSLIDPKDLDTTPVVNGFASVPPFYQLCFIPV
Cytochrome P450 2D6, sequence (P10635 whole entry): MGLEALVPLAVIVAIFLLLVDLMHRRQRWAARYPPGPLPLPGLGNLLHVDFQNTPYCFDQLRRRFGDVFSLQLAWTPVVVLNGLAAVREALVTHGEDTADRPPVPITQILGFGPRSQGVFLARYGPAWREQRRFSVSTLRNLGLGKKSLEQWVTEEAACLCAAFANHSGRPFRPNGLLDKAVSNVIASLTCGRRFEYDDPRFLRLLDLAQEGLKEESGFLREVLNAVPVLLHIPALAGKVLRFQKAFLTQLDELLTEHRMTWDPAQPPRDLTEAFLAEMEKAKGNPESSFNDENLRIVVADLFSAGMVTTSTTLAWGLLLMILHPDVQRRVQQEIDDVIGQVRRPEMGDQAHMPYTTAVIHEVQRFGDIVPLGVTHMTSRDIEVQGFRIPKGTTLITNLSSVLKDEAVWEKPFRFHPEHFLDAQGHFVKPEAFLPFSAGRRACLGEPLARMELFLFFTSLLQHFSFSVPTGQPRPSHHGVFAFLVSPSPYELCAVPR
Cytochrome P450 2C9, sequence (P11712 whole entry): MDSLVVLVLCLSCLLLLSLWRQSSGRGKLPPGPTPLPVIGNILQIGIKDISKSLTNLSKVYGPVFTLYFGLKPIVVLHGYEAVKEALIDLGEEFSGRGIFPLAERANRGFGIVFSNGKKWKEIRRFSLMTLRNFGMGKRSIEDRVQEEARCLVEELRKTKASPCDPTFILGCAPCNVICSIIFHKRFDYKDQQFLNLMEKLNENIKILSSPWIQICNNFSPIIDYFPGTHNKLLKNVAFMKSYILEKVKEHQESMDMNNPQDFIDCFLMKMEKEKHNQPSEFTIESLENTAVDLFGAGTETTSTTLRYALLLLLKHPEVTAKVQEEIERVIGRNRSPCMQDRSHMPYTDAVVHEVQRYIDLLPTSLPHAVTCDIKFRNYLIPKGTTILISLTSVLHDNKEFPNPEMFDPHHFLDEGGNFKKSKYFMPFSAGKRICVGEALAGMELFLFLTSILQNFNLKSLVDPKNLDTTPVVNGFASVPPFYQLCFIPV
Cytochrome P450 3A4, sequence (P08684 whole entry): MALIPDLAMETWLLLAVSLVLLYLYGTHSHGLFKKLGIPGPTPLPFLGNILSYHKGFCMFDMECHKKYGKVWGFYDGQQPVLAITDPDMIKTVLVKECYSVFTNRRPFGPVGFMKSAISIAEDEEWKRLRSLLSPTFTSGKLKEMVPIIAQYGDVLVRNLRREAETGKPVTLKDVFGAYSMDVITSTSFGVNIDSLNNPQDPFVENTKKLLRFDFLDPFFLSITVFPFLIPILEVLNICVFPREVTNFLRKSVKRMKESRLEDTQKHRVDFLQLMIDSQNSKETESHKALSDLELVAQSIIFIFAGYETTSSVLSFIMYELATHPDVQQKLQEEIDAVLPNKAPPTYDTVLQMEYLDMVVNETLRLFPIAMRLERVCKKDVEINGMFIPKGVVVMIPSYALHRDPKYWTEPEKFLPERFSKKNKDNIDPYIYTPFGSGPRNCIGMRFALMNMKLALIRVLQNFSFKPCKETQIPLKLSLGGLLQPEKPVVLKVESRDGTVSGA

The term EC50 denotes the concentration at which the effect is half-maximal. `COc1cc(NC(=O)c2cccs2)c(C(=O)OCC(=O)c2cc(C)n(-c3ccc(F)cc3)c2C)cc1OC`: the 50% effective concentration (EC50) in data set [1] was 4.87 µM (active).
In general, AC50 refers to the midpoint of the concentration-response curve, whichever way the signal moves. Consider `Cc1cnn(-c2ccc3nnc(-c4ccc(Cl)cc4)n3n2)c1`, for which the half-maximal activity concentration (AC50) was 1.41 µM (inconclusive) on Cytochrome P450 2C19 (read-out: AC50), 1.12 µM (inconclusive) at Cytochrome P450 3A4 and 6.31 µM (inconclusive) on Cytochrome P450 2C9.
Turning to `CCCC(=O)Nc1nnc(Cc2ccccc2)s1`, the half-maximal activity concentration (AC50) on Cytochrome P450 3A4 was 15.8 µM (inconclusive); on Cytochrome P450 2C9 it was 10 µM (inconclusive).
As to `CC1=CC2=NC(=O)CC(C)(C(=O)N(CC(=O)NC(C)(C)C)Cc3cccs3)N2C=C1` (stereo unspecified), the concentration at half-maximal activity (AC50) on Cytochrome P450 2C9 was 25.1 µM (inconclusive).
With `O=[N+]([O-])c1cc([N+](=O)[O-])c(Oc2cccc(Cl)c2Cl)cc1NN1CCCCC1`, the EC50 was 11.8 µM (active) in [2], > 120 µM (not active) in data set [3] and 58.3 µM (active) in data set [4].
As to `CN(C)c1ncc2nc(-c3ccccc3)c(=O)n(-c3ccccc3)c2n1`, the concentration at half-maximal activity (AC50) at Cytochrome P450 1A2 is 0.398 µM (inconclusive).
For the molecule `O=C(/C(=C(\[O-])c1ccccc1)[n+]1ccc2ccccc2c1)c1ccc([N+](=O)[O-])cc1`, the EC50 in data set [1] was > 195 µM (not active).
On to `COCCn1c(=O)cnc2cnc(Oc3ccccc3)nc21`, for which, on Cytochrome P450 3A4, the concentration at half-maximal activity (AC50) was 25.1 µM (inconclusive).
For `O=C(Nc1ccccc1)N1CCCC2(CCN(C(=O)c3cc(C(F)(F)F)cc(C(F)(F)F)c3)CC2)C1`, on Cytochrome P450 1A2, the concentration at half-maximal activity (AC50) is 31.6 µM (inconclusive).
As to `CC1CCN(C(=O)CSc2nc(O)c3cnn(-c4ccc(Cl)cc4)c3n2)CC1`, the EC50 in data set [1] is given as > 195 µM (not active).
Turning to `COc1ccc(O[C@H]2C=C[C@@H](c3ccccc3)O[C@@H]2CO/N=C(\C)CCN2CCCCc3nc(C)c(C)cc32)cc1`, at Cytochrome P450 2C9, the AC50 is 6.31 µM (inconclusive).
Turning to `Cc1cccc(NC(S)=NNC(=O)CCn2cc(C)cn2)c1`, the AC50 entry is “inconclusive” on Cytochrome P450 2C19 and 25.1 µM (inconclusive) at Cytochrome P450 1A2.
Turning to `CC(C)(C)N1[C@@H](CC(=O)O)c2cc(C(F)(F)F)ccc2S1(=O)=O`, the concentration giving a half-maximal response (EC50) in data set [1] was > 195 µM (not active).
Regarding `COC(=O)/C=C/c1ccccc1S(=O)(=O)N(Cc1ccccc1)Cc1ccco1`, the EC50 in data set [2] is 8.38 µM (inconclusive); in data set [3], 9.84 µM (active); in data set [4], 5.96 µM (active).
On to `CN(C)S(=O)(=O)c1ccc(Nc2ccc(O)c3c2C(=O)c2c([N+](=O)[O-])ccc(O)c2C3=O)cc1`, for which the AC50 was 0.794 µM (inconclusive) on Cytochrome P450 2D6, 3.98 µM (inconclusive) at Cytochrome P450 3A4 and 3.16 µM (inconclusive) at Cytochrome P450 2C9.
For the molecule `COCCNC(=O)[C@H](C)[C@@H]1C[C@@]1(C)[C@@H](NC(=O)OCc1ccccc1)c1ccccc1`, at Cytochrome P450 2C9, the AC50 was 31.6 µM (inconclusive).
The same measure, in the same setting: the result for `CC(C)OCCCn1c(=S)[nH]c2ncccc2c1=O` reads 1.78 µM (inconclusive); that for `Cc1ccc(S(=O)(=O)c2cc(N3CCOCC3)nc(-c3ccccc3)n2)cc1`, 11.2 µM (inconclusive).
In the case of `COc1cc(-c2c(C#N)c(N)nc3c2CCCC3)cc(OC)c1OC`, the EC50 was 27.4 µM (active) in [2], 17.1 µM (active) in [3] and 19.7 µM (active) in data set [4].
Turning to `COc1ccccc1CN1CCCC2(CCN(C(C)=O)CC2)C1`, the concentration at half-maximal activity (AC50) on Cytochrome P450 1A2 is 25.1 µM (inconclusive).
For the molecule `COc1ccc(C)cc1NC(=O)CN1CCN(S(=O)(=O)c2ccc(F)cc2)CC1`, on Cytochrome P450 1A2, the AC50 is 0.0398 µM (inconclusive).
For the molecule `O=C(Nc1ccc(Oc2ncnc3cc(Cl)ccc23)nc1)c1cccs1`, the EC50 in data set [2], in data set [3] and in data set [4] was > 120 µM (not active) each time.
As for `Cc1cnc(CNc2ncncc2-c2ccccc2C(F)(F)F)cn1`, the half-maximal activity concentration (AC50) at Cytochrome P450 2C19 (read-out: AC50) was 39.8 µM (inconclusive); at Cytochrome P450 3A4 it was 0.2 µM (inconclusive).
Take `O=c1c2ccc([N+](=O)[O-])c3cccc(c32)c2nc3ccccc3n12`: the EC50 in data set [2], in [3] and in data set [4] was < 0.1 µM (active) in each case.
Regarding `CC(C)=C1C2CCC1C1C(=O)N(c3ccc(C)c(C)c3)C(=O)C21` (stereo unspecified), the concentration for a half-maximal effect (EC50) in [1] was > 195 µM (not active).
`N#CC(C#N)=NNc1ccc2cn[nH]c2c1`: the AC50 is 3.16 µM (inconclusive) at Cytochrome P450 2C19 (read-out: AC50) and 1.58 µM (inconclusive) on Cytochrome P450 3A4.
Take `COc1ccc(CNC(=O)C(=O)c2cn(CC(=O)N3CCOCC3)c3ccccc23)cc1`: in data set [1], the 50% effective concentration (EC50) is > 195 µM (not active).
`COc1ccc2cc3cc(C(=O)NCc4ccccn4)oc3nc2c1`: the AC50 at Cytochrome P450 2D6 and on Cytochrome P450 3A4 was 39.8 µM (inconclusive) in each case.
For `Cc1cc(=O)oc(C)c1C(=O)Nc1ccc(Cl)cn1`, the AC50 at Cytochrome P450 2C19 (read-out: AC50) is 2.24 µM (inconclusive); on Cytochrome P450 2C9 it was 20 µM (inconclusive).
As to `O=C(NCc1ccc(F)cc1)C(c1ccncc1)N(C(=O)c1csnn1)C1CC1` (stereo unspecified), the AC50 on Cytochrome P450 2D6 is 11.2 µM (inconclusive); at Cytochrome P450 2C9, 8.91 µM (inconclusive).
Regarding `O=C(Nc1ccc(F)cc1Cl)c1ccc2c(=O)n3c(nc2c1)CCCCC3`, the figures for the AC50 at Cytochrome P450 2C19 (read-out: AC50) and at Cytochrome P450 3A4 were 3.98 µM (inconclusive) and 4.47 µM (inconclusive), respectively.
In the case of `Cc1ccc(N2CC(C(=O)Nc3nnc(SCCN4CCOCC4)s3)CC2=O)cc1` (stereo unspecified), the EC50 in data set [1] is recorded as > 195 µM (not active).
Consider `COc1ccc(NC(=O)CN(C)S(=O)(=O)c2ccc3c(c2)CCC(=O)N3)c(OC)c1`, for which the EC50 in data set [1] is > 195 µM (not active).
On to `O=c1c(-c2ccccc2)c(O)c2cccc3c2n1CCC3`, for which, on Cytochrome P450 1A2, the AC50 is 11.2 µM (inconclusive).
For `Cc1cc(SC(C)C(=O)NCC(=O)Nc2ccc(F)c(F)c2F)nc2ccccc12` (stereo unspecified), the EC50 in [2] was > 120 µM (not active); in data set [3] it was 92 µM (active); in [4], 18 µM (active).
Regarding `COC(=O)c1nn(C23CC4CC(CC(C4)C2)C3)c2c1C(=O)N(c1ccc(F)cc1)C2=O`, the AC50 was 39.8 µM (inconclusive) on Cytochrome P450 2C19 (read-out: AC50) and 12.6 µM (inconclusive) on Cytochrome P450 2C9.
As for `Cc1nnc(-c2cccc(Br)c2)c2cn(-c3ccccc3Cl)nc12`, the half-maximal activity concentration (AC50) is 28.2 µM (inconclusive) on Cytochrome P450 2D6 and 39.8 µM (inconclusive) at Cytochrome P450 3A4.
For `COCC(=O)N1CCC2(CCCN(C(=O)Nc3ccc(OC)cc3)C2)CC1`, the values for the AC50 result on Cytochrome P450 2C19 and at Cytochrome P450 3A4 were “inconclusive” and 39.8 µM (inconclusive), respectively.
Consider `O=C(Nc1ccc(-n2nncc2-c2ccco2)cc1)c1ccc(F)cc1`, for which the AC50 at Cytochrome P450 2C9 was 11.2 µM (inconclusive).
With `COc1ccc(OC)c(Nc2nc(-c3sc(NC(=O)C(C)(C)C)nc3C)cs2)c1`, the EC50 in data set [1] is > 195 µM (not active).
For the molecule `CSc1nc(NCc2ccco2)c2sc3nc(C(C)C)c4c(c3c2n1)CC(C)(C)OC4`, the concentration giving a half-maximal response (EC50) in [2] is 27.5 µM (active); in data set [3], > 120 µM (not active); in data set [4], > 120 µM (not active).
For `O=C(O)c1ccc(Oc2nc3ccccc3s2)cc1`, the AC50 at Cytochrome P450 1A2 is 3.16 µM (inconclusive).
`Cn1c(=O)c2c(-c3cccc(F)c3)c3c(nc2n(C)c1=O)-c1ccccc1C3O` (stereo unspecified): the AC50 on Cytochrome P450 2D6 is 79.4 µM (inconclusive); on Cytochrome P450 3A4 it was 22.4 µM (inconclusive); at Cytochrome P450 2C9, 2.82 µM (inconclusive).
Take `C(=N\n1cncn1)/c1ccc(N2CCOCC2)cc1`: the EC50 in data set [1] was > 195 µM (not active).
For `Cc1c(N2C(=O)CS/C2=N\N=C\c2ccc(Cl)cc2)c(=O)n(-c2ccccc2)n1C`, the figures for the AC50 at Cytochrome P450 2C19 (read-out: AC50), at Cytochrome P450 3A4 and on Cytochrome P450 2C9 were 39.8 µM (inconclusive), 28.2 µM (inconclusive) and 31.6 µM (inconclusive), respectively.
Take `CCCC1S/C(=N/N=C/c2ccc(OC)cc2)N(Cc2ccc(OC)cc2)C1=O` (stereo unspecified): the half-maximal activity concentration (AC50) at Cytochrome P450 3A4 was 1 µM (inconclusive).
Turning to `C/C(=N\Nc1nncc2ccccc12)c1ccc(Cl)c([N+](=O)[O-])c1`, the EC50 in data set [1] is listed as > 195 µM (not active).
As for `COC(=O)C1=C(C)NC(C)=C(C(=O)OC(C)C)C1c1cccc2nonc12` (stereo unspecified) [ISRADIPINE], the concentration at half-maximal activity (AC50) on Cytochrome P450 1A2 is 31.6 µM (inconclusive).
